Laboratory results as given in patent US20250230147A1, “LACTAMS AS CBL-B INHIBITORS” (Genentech, Inc., priority 2021, published 2025).
Structures can show the parent of a compound that is named as a salt.

Tests used:
[1] = target: c-Cbl (Homo sapiens (Human), UniProt P22681); test: C-Cbl LCK Ub TR-FRET assay (c-cbl Lck HTRF); type: biochemical; conditions: for (fold-selectivity): C-cbl Lck HTRF IC50 relative to Cbl-b Lck HTRF IC50
Summary of the method: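 After the ubiquitination reaction, detection mixture was added and plates incubated 20 min at room temperature before reading. IC50 values were calculated with wells lacking LCK as the low control and DMSO as the high control.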

[2] = target: Cbl-b (Homo sapiens (Human), UniProt Q13191); test: Cbl-b LCK Ub TR-FRET assay (Cbl-b Lck HTRF); type: biochemical
Chain of Cbl-b (Q13191 40-426): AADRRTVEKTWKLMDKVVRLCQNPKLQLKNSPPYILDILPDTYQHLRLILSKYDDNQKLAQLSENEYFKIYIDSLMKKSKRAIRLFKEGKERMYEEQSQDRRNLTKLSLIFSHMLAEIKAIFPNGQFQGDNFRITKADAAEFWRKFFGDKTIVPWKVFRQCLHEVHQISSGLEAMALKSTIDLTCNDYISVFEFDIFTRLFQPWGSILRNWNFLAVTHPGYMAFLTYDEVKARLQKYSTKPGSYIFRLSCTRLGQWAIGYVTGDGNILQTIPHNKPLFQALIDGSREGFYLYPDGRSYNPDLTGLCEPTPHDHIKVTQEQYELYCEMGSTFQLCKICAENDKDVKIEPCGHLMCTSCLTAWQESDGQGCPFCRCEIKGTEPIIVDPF
Summary of the method: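 TR-FRET (340 nm excitation, 615/665 nm emission) read after adding HA-ubiquitin–UBE2D2 thioester, anti-HA-D2 and streptavidin-Eu. Beforehand, compounds incubated 60 min with biotinylated Cbl-b, then 90 min with His-LCK and ATP (1 mM in 2× mix); IC50 from 10 concentrations, DMSO high and no-LCK low controls.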

Chain of c-Cbl (P22681 47-435): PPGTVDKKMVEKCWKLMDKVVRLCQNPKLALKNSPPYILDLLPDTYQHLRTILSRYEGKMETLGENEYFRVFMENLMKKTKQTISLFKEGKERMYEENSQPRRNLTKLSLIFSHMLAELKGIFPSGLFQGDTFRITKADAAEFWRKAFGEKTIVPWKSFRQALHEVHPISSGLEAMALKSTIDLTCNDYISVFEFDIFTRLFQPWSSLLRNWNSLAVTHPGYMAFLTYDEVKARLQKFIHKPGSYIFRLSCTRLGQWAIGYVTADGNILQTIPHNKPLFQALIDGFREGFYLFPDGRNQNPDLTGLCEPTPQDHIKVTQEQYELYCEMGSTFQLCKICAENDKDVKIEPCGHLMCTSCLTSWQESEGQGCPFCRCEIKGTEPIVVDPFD

`Cn1cnnc1[C@@H](F)C1(c2cccc(N3Cc4c(cc(CN5CC(O)(C6CC6)C5)cc4C(F)(F)F)C3=O)c2)COC1` [Compound 174, (S)-6-((3-cyclopropyl-3-hydroxyazetidin-1-yl)methyl)-2-(3-(3-(fluoro(4-methyl-4H-1,2,4-triazol-3-yl)methyl)oxetan-3-yl)phenyl)-4-(trifluoromethyl)isoindolin-1-one] was tested, and the IC50 [1] was 440 nM, the “(fold-selectivity)” value [1] was 2.3x and the IC50 [2] was 190 nM.

With `Cn1cnnc1[C@@H](F)C1(c2cccc(N3Cc4c(cc(CN5CC(C(F)F)C5)cc4C(F)(F)F)C3=O)c2)COC1` [Compound 138, (S)-6-((3-(difluoromethyl)azetidin-1-yl)methyl)-2-(3-(3-(fluoro(4-methyl-4H-1,2,4-triazol-3-yl)methyl)oxetan-3-yl)phenyl)-4-(trifluoromethyl)isoindolin-1-one] the IC50 [1] was 180 nM, the “(fold-selectivity)” value [1] was 1.8x and the IC50 [2] was 98 nM.

For `CC(=O)Nc1cc(C2(Cc3nncn3C)CCC2)cc(N2Cc3c(cc(CN4CCN(C)C[C@@H]4C(C)C)cc3C(F)(F)F)C2=O)n1` [Compound 330, (S)-N-(6-(6-((2-isopropyl-4-methylpiperazin-1-yl)methyl)-1-oxo-4-(trifluoromethyl)isoindolin-2-yl)-4-(1-((4-methyl-4H-1,2,4-triazol-3-yl)methyl)cyclobutyl)pyridin-2-yl)acetamide], the IC50 [1] was 1200 nM, the “(fold-selectivity)” value [1] was “(1.2x)” and the IC50 [2] was 1000 nM.

In the case of `Cn1cnnc1CC1(c2cc(NC3CC=CC3)nc(N3Cc4c(cccc4C(F)(F)F)C3=O)c2)COC1` [Compound 484, 2-(6-(cyclopent-3-en-1-ylamino)-4-(3-((4-methyl-4H-1,2,4-triazol-3-yl)methyl)oxetan-3-yl)pyridin-2-yl)-4-(trifluoromethyl)isoindolin-1-one], the IC50 [1] is reported as 1200 nM, the “(fold-selectivity)” value [1] is reported as “(4.8x)” and the IC50 [2] is reported as 230 nM.

For `CC(C)NCc1cc2c(c(C(F)(F)F)c1)CN(c1cccc(C3([C@@H](F)c4nncn4C)CC(F)(F)C3)c1)C2=O` [Compound 417, (R)-2-(3-(3,3-difluoro-1-(fluoro(4-methyl-4H-1,2,4-triazol-3-yl)methyl)cyclobutyl)phenyl)-6-((isopropylamino)methyl)-4-(trifluoromethyl)isoindolin-1-one], the IC50 [1] was 52 nM, the “(fold-selectivity)” value [1] was “(0.93x)” and the IC50 [2] was 57 nM.

In the case of `Cn1cnnc1[C@H](F)C1(c2cccc(N3Cc4c(cc(CN5CCC(C)(O)CC5)cc4C(F)(F)F)C3=O)c2)COC1` [Compound 141, (R)-2-(3-(3-(fluoro(4-methyl-4H-1,2,4-triazol-3-yl)methyl)oxetan-3-yl)phenyl)-6-((4-hydroxy-4-methylpiperidin-1-yl)methyl)-4-(trifluoromethyl)isoindolin-1-one], the IC50 [1] is reported as 120 nM, the “(fold-selectivity)” value [1] is reported as 1.3x and the IC50 [2] is reported as 91 nM.

In the case of `CCOc1cc(N2Cc3c(cc(CNC4(C)CCC4)cc3C(F)(F)F)C2=O)cc(C2(Cc3nncn3C)COC2)c1` [Compound 473, 2-(3-ethoxy-5-(3-((4-methyl-4H-1,2,4-triazol-3-yl)methyl)oxetan-3-yl)phenyl)-6-(((1-methylcyclobutyl)amino)methyl)-4-(trifluoromethyl)isoindolin-1-one], the IC50 [1] is reported as 17 nM, the “(fold-selectivity)” value [1] is reported as “(1.2x)” and the IC50 [2] is reported as 15 nM.

For `CC[C@H]1CC[C@H](c2cc3c(c(C(F)(F)F)c2)CN(c2cccc(C4(Cc5nncn5C)CC(F)(F)C4)c2)C3=O)N1` [Compound 469, 2-(3-(3,3-difluoro-1-((4-methyl-4H-1,2,4-triazol-3-yl)methyl)cyclobutyl)phenyl)-6-((2R,5S)-5-ethylpyrrolidin-2-yl)-4-(trifluoromethyl)isoindolin-1-one], the IC50 [1] was 52 nM, the “(fold-selectivity)” value [1] was “(1.1x)” and the IC50 [2] was 48 nM.

`CC(C)[C@H]1CN(Cc2cc3c(c(C(F)(F)F)c2)CN(c2cccc(C4(Cc5nncn5C)CC(F)(F)C4)c2)C3=O)CCN1C` [Compound 439, (S)-2-(3-(3,3-difluoro-1-((4-methyl-4H-1,2,4-triazol-3-yl)methyl)cyclobutyl)phenyl)-6-((3-isopropyl-4-methylpiperazin-1-yl)methyl)-4-(trifluoromethyl)isoindolin-1-one] was tested, and the IC50 [1] was 7.1 nM, the “(fold-selectivity)” value [1] was “(0.58x)” and the IC50 [2] was 12 nM.

`Cn1cnnc1CC1(c2cccc(N3Cc4c(Cl)cc(CNC5(C)CCC5)cc4C3=O)c2)CC(F)(F)C1` [Compound 252, 4-chloro-2-(3-(3,3-difluoro-1-((4-methyl-4H-1,2,4-triazol-3-yl)-methyl)cyclobutyl)phenyl)-6-(((1-methylcyclobutyl)amino)methyl)isoindolin-1-one formate] gave an IC50 [1] of 11 nM and an IC50 [2] of 13 nM.

For `Cn1cnnc1CC1(c2cccc(N3Cc4c(cc(CN5CCC[C@](C)(O)C5)cc4C(F)(F)F)C3=O)c2)CC(F)(F)C1` [Compound 440, (S)-2-(3-(3,3-difluoro-1-((4-methyl-4H-1,2,4-triazol-3-yl)methyl)cyclobutyl)phenyl)-6-((3-hydroxy-3-methylpiperidin-1-yl)methyl)-4-(trifluoromethyl)isoindolin-1-one], the IC50 [1] was 110 nM, the “(fold-selectivity)” value [1] was “(0.79x)” and the IC50 [2] was 140 nM.

For `CC(C)[C@H]1CN(C)CCN1Cc1cc2c(c(C(F)(F)F)c1)CN(c1cccc(C3([C@@H](F)c4nncn4C(F)F)COC3)c1)C2=O` [Compound 267, 2-(3-(3-((R)-(4-(difluoromethyl)-4H-1,2,4-triazol-3-yl)fluoromethyl)oxetan-3-yl)phenyl)-6-(((S)-2-isopropyl-4-methylpiperazin-1-yl)methyl)-4-(trifluoromethyl)isoindolin-1-one], the IC50 [1] was 17 nM, the “(fold-selectivity)” value [1] was “(1.0x)” and the IC50 [2] was 17 nM.

`Cn1cnnc1CC1(c2cccc(N3Cc4c(cc(CN5CCNC[C@H]5C5CC5)cc4C(F)(F)F)C3=O)c2)CC(F)(F)C1` [Compound 436, (R)-6-((2-cyclopropylpiperazin-1-yl)methyl)-2-(3-(3,3-difluoro-1-((4-methyl-4H-1,2,4-triazol-3-yl)methyl)cyclobutyl)phenyl)-4-(trifluoromethyl)isoindolin-1-one] was tested, and the IC50 [1] was 32 nM, the “(fold-selectivity)” value [1] was “(0.97x)” and the IC50 [2] was 34 nM.

With `CC(C)[C@H]1CN(C)CCN1Cc1cc2c(c(C(F)(F)F)c1)CN(c1cccc([C@]3([C@H](F)c4nncn4C)CCO3)c1)C2=O` (single isomer, unassigned) [Compound 262] the IC50 [1] was 840 nM, the “(fold-selectivity)” value [1] was “(1.4x)” and the IC50 [2] was 580 nM.

In the case of `Cn1cnnc1[C@H](F)[C@](C)(F)c1cccc(N2Cc3c(cc(CN4CC(C)(F)C4)cc3C(F)(F)F)C2=O)c1` [Compound 31, 2-(3-((1 S,2R)-1,2-difluoro-1-(4-methyl-4H-1,2,4-triazol-3-yl)propan-2-yl)phenyl)-6-((3-fluoro-3-methylazetidin-1-yl)methyl)-4-(trifluoromethyl)isoindolin-1-one], the IC50 [1] is reported as 130 nM, the “(fold-selectivity)” value [1] is reported as 1.4x and the IC50 [2] is reported as 88 nM.

With `CCc1cc(C2(Cc3nncn3C)CCC2)cc(N2Cc3c(cc(CNC4(C)CCC4)cc3C(F)(F)F)C2=O)n1` [Compound 361, 2-(6-ethyl-4-(1-((4-methyl-4H-1,2,4-triazol-3-yl)methyl)cyclobutyl)pyridin-2-yl)-6-(((1-methylcyclobutyl)amino)methyl)-4-(trifluoromethyl)isoindolin-1-one] the IC50 [1] was 9.6 nM, the “(fold-selectivity)” value [1] was “(0.76x)” and the IC50 [2] was 13 nM.
